Results on one compound are retold here after paper PMC7407272, “Induction of Lysosome Membrane Permeabilization as a Therapeutic Strategy to Target Pancreatic Cancer Stem Cells” (Cancers, 2020).

One data set addresses T1, TYK2(JH1D.-cat.) (Homo sapiens, UniProt P29597).
T1 construct: TYK2(JH1D.-cat.); purchased DiscoveRx KINOMEscan
Nature of the data set: KINOMEscan. It is filed as binding. Conditions: read-out: % Ctrl.

A further data set relates to PDAC2 cells. Kind of data set: CD133 flow cytometry. It is filed as cell-based, human. Particulars: 1.25 or 2.5 µM, 72 h. The method, then:
Cells were analyzed with a 4-laser Attune NxT Acoustic Cytometer (ThermoFisher Scientific). […] For lysosomes quantification, Acridine Orange (AO) (A1301, Thermo Fisher Scientific, Waltham, MA, USA) or Lysotracker Deep Red (DR) (L12492, Molecular probes, Life Technologies, Waltham, MA, USA) were used. AO fluorescence was assessed with two combinations of excitation and emission spectra: BL1 (Ex488/Em695/40, equal to the far-red channel (>670 nm)) and BL3 (Ex488/Em695/40, equal to the far-red channel (>670 nm)) Lysotracker DR fluorescence was assessed with RL1 (Ex638/Em670/14). […] For all assays, DAPI was used to mark and exclude dead cells, and data were analyzed using the software FlowJo v9.3 (Tree Star Inc., Ashland, OR, USA).
Figure S3. […] Apoptosis was determined 72 h post treatment initiation. […]
(In general: Flow cytometry measures light scatter and fluorescence of single cells or particles in a stream.)

In another data set the target is T2, JNK3 (Homo sapiens, UniProt P53779).
T2 construct: purchased DiscoveRx KINOMEscan
Nature of the data set: KINOMEscan. It is filed as binding. Conditions: read-out: % Ctrl.

Another data set addresses T3, MRCKA (Homo sapiens, UniProt Q5VT25).
T3 construct: purchased DiscoveRx KINOMEscan
Nature of the data set: KINOMEscan. It is filed as binding. Particulars: read-out: % Ctrl.

The next data set has as its target T4, DCAMKL1 (Homo sapiens, UniProt O15075).
T4 construct: purchased DiscoveRx KINOMEscan
Kind of data set: KINOMEscan. It is filed as binding. Particulars: read-out: % Ctrl.

The target of the next data set is T5, EGFR(G719C) (Homo sapiens, UniProt P00533, G719C).
T5 construct: purchased DiscoveRx KINOMEscan
Kind of data set: KINOMEscan. It is filed as binding. Conditions: read-out: % Ctrl.

The target in a further data set is T6, TSSK1B (Homo sapiens, UniProt Q9BXA7).
T6 construct: purchased DiscoveRx KINOMEscan
T6 sequence (Q9BXA7 whole entry): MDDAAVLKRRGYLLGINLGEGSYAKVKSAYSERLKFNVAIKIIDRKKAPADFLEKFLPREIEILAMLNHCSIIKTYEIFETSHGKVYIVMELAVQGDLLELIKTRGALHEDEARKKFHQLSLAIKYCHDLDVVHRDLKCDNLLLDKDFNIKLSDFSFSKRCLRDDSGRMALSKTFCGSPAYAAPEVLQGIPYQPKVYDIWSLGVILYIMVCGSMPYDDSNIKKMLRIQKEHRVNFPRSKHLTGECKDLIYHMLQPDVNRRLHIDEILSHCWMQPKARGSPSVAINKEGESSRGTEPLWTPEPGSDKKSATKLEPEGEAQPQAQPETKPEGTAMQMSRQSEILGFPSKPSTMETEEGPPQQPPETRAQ
Nature of the data set: KINOMEscan. It is filed as binding. Conditions: read-out: % Ctrl.

The target of another data set is T7, TNK1 (Homo sapiens, UniProt Q13470).
T7 construct: purchased DiscoveRx KINOMEscan
T7 sequence (Q13470 whole entry): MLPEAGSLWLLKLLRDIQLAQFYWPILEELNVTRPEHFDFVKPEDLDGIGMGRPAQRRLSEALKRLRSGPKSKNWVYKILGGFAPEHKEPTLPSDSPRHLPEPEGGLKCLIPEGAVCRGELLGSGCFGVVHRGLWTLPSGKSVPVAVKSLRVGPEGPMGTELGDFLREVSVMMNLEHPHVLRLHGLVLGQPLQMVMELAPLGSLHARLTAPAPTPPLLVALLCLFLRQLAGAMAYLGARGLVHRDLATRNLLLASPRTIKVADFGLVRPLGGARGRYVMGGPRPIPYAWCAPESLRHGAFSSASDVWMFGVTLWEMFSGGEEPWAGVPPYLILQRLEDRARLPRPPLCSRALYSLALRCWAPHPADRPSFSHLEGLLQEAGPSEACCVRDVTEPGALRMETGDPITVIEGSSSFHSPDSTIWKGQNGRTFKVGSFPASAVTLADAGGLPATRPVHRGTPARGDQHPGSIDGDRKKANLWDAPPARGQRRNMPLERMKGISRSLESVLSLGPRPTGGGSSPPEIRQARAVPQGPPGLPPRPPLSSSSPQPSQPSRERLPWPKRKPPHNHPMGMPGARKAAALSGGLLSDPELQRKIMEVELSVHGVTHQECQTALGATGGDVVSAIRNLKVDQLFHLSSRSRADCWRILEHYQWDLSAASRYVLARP
Nature of the data set: KINOMEscan. It is filed as binding. Particulars: read-out: % Ctrl.

A further data set has as its target T8, PIP5K2B (Homo sapiens, UniProt P78356).
T8 construct: purchased DiscoveRx KINOMEscan
Kind of data set: KINOMEscan. Conditions: read-out: % Ctrl. It is filed as binding.

A further data set deals with T9, PCTK1 (Homo sapiens, UniProt Q00536).
T9 construct: purchased DiscoveRx KINOMEscan
Kind of data set: KINOMEscan. It is filed as binding. Particulars: read-out: % Ctrl.

The next data set is described as follows: Pharmacokinetic study. Particulars: BALB/c mice. It is filed as in vivo. The method, then:
Female BABL/c mice, 10 weeks old were used (n = 3 per time point). Compound 2 was formulated in 0.9% NaCl solution for both oral and intravenous (i.v.) injections. Plasma samples were collected following a single i.v. or oral administration of 8 mg/kg at 0.08, 0.16, 0.25, 0.5, 1, 4, 8 and 24 h. The extraction of Cpd 2 from plasma was achieved by solid phase extraction followed by high performance liquid chromatography/tandem mass spectrometry (Agilent 1100, Applied Biosystems API2000) analysis. The amount of inhibitor and the internal standard in each mouse plasma sample were quantified based on calibration curves generated using standards of known concentrations of compound. This assay method was sufficiently accurate for the quantification of Cpd 2 with a limit of detection (LOD) and a low limit of quantification (LLOQ) of 5 ng/mL. Pharmacokinetic parameters were estimated using WinNonlin Version 5.2 software (Pharsight Corp., Mountain View, CA, USA), by fitting both the experimental i.v and oral data to a bicompartimental model.

In the next data set the target is T10, CAMKK2 (Homo sapiens, UniProt Q96RR4).
T10 construct: purchased DiscoveRx KINOMEscan
T10 sequence (Q96RR4 whole entry): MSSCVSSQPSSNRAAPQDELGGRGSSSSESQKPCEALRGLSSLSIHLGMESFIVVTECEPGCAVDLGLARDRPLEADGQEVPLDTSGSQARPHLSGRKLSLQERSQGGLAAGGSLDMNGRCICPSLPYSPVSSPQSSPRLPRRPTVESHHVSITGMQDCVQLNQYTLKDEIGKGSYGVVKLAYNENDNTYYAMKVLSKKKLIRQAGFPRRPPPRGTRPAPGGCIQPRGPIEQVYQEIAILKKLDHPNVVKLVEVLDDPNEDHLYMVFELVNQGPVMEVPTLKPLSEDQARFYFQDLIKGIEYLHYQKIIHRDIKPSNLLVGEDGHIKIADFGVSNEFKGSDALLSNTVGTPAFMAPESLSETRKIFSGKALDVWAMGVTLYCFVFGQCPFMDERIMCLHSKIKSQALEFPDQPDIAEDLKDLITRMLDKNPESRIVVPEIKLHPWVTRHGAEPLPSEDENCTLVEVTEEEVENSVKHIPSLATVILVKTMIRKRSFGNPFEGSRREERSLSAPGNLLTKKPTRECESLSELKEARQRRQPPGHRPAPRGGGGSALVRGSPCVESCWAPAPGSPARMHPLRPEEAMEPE
Kind of data set: KINOMEscan. It is filed as binding. Particulars: read-out: % Ctrl.

Another data set concerns the target T11, CDC2L1 (Homo sapiens, UniProt P21127).
T11 construct: purchased DiscoveRx KINOMEscan
Nature of the data set: KINOMEscan. It is filed as binding. Conditions: read-out: % Ctrl.

For another data set, the target named is T12, ZAP70 (Homo sapiens, UniProt P43403).
T12 construct: purchased DiscoveRx KINOMEscan
Nature of the data set: KINOMEscan. It is filed as binding. Particulars: read-out: % Ctrl.

The target of another data set is T13, MEK1 (Homo sapiens, UniProt Q02750).
T13 construct: purchased DiscoveRx KINOMEscan
Nature of the data set: KINOMEscan. It is filed as binding. Conditions: read-out: % Ctrl.

The target in the next data set is T14, ABL1(M351T)-P (Homo sapiens, UniProt P00519, M351T).
T14 construct: purchased DiscoveRx KINOMEscan
Kind of data set: KINOMEscan. It is filed as binding. Particulars: read-out: % Ctrl.

The target in the next data set is T15, DRAK1 (Homo sapiens, UniProt Q9UEE5).
T15 construct: purchased DiscoveRx KINOMEscan
Kind of data set: KINOMEscan. It is filed as binding. Conditions: read-out: % Ctrl.

The target in a further data set is T16, IRAK1 (Homo sapiens, UniProt P51617).
T16 construct: purchased DiscoveRx KINOMEscan
Nature of the data set: KINOMEscan. It is filed as binding. Conditions: read-out: % Ctrl.

T3 sequence (Q5VT25 whole entry): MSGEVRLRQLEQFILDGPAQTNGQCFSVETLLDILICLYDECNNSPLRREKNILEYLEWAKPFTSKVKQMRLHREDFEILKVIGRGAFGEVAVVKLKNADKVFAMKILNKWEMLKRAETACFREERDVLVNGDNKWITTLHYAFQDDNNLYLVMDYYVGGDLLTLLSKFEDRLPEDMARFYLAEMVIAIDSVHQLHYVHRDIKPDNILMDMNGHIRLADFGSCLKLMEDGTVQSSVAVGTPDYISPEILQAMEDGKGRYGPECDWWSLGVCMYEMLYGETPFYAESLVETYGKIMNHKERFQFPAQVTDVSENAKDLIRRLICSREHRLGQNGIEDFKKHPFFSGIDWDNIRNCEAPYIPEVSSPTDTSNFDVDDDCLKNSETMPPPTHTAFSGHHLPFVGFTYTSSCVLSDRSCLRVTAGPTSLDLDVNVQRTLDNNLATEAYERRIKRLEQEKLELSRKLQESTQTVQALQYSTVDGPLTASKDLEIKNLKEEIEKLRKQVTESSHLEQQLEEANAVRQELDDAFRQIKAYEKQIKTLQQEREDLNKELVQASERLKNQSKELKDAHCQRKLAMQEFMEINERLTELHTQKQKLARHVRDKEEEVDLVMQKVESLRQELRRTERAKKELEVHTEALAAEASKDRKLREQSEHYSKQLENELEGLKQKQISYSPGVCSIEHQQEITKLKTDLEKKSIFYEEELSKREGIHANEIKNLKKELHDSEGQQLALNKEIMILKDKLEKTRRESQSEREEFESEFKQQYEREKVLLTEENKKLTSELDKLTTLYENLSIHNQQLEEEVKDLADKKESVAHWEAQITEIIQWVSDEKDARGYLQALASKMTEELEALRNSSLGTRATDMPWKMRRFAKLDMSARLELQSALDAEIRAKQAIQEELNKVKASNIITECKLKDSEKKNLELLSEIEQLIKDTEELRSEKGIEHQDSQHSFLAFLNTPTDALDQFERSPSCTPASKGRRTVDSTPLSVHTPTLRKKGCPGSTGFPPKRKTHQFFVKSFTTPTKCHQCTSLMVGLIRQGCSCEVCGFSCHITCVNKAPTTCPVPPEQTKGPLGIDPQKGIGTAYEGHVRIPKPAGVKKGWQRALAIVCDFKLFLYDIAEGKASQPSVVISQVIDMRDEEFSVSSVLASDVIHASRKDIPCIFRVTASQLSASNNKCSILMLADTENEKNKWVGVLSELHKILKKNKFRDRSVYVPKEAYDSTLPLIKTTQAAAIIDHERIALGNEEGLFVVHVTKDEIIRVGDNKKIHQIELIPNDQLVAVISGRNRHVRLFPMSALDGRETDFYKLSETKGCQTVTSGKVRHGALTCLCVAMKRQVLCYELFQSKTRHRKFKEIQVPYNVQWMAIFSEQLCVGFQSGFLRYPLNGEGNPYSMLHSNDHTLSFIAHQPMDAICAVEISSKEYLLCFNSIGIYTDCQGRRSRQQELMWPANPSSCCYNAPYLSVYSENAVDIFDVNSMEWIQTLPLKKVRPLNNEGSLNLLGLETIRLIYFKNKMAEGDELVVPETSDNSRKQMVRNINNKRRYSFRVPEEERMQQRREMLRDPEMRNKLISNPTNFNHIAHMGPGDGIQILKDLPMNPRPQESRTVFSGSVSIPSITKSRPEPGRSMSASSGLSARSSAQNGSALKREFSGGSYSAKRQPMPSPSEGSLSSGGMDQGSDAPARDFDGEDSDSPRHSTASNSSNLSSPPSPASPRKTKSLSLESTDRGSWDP
T11 sequence (P21127 whole entry): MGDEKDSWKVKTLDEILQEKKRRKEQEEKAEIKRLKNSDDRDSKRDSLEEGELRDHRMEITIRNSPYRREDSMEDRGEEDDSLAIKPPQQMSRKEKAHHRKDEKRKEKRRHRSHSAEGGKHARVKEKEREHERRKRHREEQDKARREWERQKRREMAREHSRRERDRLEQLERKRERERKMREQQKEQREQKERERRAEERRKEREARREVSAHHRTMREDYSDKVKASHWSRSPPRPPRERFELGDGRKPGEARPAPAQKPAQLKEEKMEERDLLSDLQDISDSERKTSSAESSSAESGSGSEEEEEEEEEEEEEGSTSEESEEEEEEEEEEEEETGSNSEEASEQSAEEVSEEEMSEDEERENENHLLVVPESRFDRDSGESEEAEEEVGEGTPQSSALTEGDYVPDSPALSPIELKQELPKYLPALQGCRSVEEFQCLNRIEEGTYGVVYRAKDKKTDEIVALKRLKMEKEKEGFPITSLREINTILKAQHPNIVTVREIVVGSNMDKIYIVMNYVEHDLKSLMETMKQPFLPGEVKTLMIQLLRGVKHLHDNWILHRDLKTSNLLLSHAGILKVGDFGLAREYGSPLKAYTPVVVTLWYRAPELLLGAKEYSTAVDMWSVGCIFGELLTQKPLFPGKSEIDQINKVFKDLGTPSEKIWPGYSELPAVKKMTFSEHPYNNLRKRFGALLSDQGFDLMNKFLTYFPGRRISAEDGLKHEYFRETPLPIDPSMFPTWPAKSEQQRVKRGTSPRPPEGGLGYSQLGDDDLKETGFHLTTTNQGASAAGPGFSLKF
T4 sequence (O15075 whole entry): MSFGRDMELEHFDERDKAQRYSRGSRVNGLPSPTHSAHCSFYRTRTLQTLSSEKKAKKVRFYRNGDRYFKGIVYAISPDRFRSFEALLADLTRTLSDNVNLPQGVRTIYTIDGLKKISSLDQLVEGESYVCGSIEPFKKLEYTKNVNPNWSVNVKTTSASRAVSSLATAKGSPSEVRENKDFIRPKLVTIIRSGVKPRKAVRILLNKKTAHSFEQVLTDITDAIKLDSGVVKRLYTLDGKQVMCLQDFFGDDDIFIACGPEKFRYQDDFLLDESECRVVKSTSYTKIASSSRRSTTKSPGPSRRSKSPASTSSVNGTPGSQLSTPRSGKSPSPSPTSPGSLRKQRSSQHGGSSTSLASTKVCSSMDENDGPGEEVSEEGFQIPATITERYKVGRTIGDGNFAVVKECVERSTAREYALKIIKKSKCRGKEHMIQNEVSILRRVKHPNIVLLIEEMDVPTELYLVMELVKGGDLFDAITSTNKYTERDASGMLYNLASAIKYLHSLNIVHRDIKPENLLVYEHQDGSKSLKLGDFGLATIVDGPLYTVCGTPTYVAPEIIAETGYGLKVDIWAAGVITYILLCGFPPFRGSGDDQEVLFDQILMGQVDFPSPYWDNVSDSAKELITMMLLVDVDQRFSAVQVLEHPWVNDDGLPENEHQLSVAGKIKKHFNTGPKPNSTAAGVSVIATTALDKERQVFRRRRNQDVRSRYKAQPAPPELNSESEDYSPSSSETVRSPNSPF

Regarding `CN1CCC(CNc2ccc3ncc(C(=O)Nc4cccc(OC(F)(F)F)c4)n3n2)CC1` [Cpd 2], the remaining binding at 1 µM on TYK2(JH1D.-cat.) stood at 65%; on JNK3 it was 100%; on MRCKA it was 100%; at DCAMKL1, 85%; at EGFR(G719C), 82%; on TSSK1B, 95%. The remaining binding at 1 µM worked out at 56% at TNK1; 95% at PIP5K2B; 100% at PCTK1; 100% at CAMKK2; 100% on CDC2L1; 95% on ZAP70. Besides, the remaining binding at 1 µM turned out to be 95% on MEK1, 100% on ABL1(M351T)-P, 97% on DRAK1 and 100% on IRAK1. Moreover, the “percentage of CD133+ cells” value with PDAC2 cells is reported as “reduced”. Further, the levels in plasma entry in the data set “Pharmacokinetic study” (after intravenous administration) is “low levels in plasma”. The compound further displayed a clearance in “Pharmacokinetic study” (intravenous administration) of over 100 % hepatic blood flow.
